The subject of assay [1] is HeLa cells. Briefly: Flow cytometry (FACS) DNA content / cell cycle profile. It is filed as cell-based, human. Particulars: 24 h. The protocol:
Adherent HeLa cells were routinely passaged and maintained in D-MEM medium supplemented with 10% Fetal Bovine Serum (FBS), 1% Penicillin/Streptomycin and 2 mM L-Glutamine. The cells were cultured at 37 °C; 5% CO2. hTERT-RPE1 cells were grown in DMEM with 10% fetal bovine serum. HeLa cells constitutively expressing green fluorescent protein-conjugated Histone H2B and mRed fluorescent protein-conjugated α-tubulin were maintained in D-MEM medium supplemented with 10% Fetal Bovine Serum (FBS), 1% Penicillin/Streptomycin, 2 mM L-Glutamine and 0.5 µg/mL Puromycin and cultured at 37 °C; 5% CO2.
After treatment, FACS analysis was performed on a BD FACSCanto™ Flow Cytometer (Cat.No. 335860 BD Biosciences) using FACSDiva Software. Cells were trypsinized, washed wish PBS and fixed overnight in EtOH (-20°C). After washing with PBS, cells were stained with a propidium iodide solution (PI; 15 µg/mL)/ RNase A (30 µg/mL) for 30 min at 37 °C. RNase was added to avoid signals caused by the binding of PI to RNA.
We first examined by flow cytometry the cell cycle profiles of HeLa cells incubated in medium containing increasing concentrations of any of (A) or (C) for 24 h.

The test system of assay [2] is HeLa cells. Briefly: Fixed cell analysis of mitotic phenotypes (fluorescence / immunofluorescence). It is filed as cell-based, human. Particulars: 2 µM, 24 h. The method, then:
For fixed cell analysis, HeLa or H2B-GFP/mRFP-αTubulin HeLa cells were grown on glass coverslips and treated as described above. Cells were fixed in ice cold methanol and mounted in Mowiol. Alternatively, non fluorescent HeLa were treated and subjected to immunofluorescence with anti-tubulin antibodies (Sigma, DM1A) and Hoechst to stain the DNA. Cells were observed on a Leica DM16000B microscope with the HCX PL APO CS 63x 1.4 objective. Images were taken with a Leica DFC 350FX camera, controlled by Leica Application Suit (LAS-AF 6000) software and processed with Adobe Photoshop.
To get a better idea about the defects causing cell division failure in cells treated with (C), we examined fixed cells to better visualize the chromosomes and the microtubules. […] In parallel, standard HeLa cells were treated in the same way. The cells were fixed and processed for immunofluorescence with anti-tubulin antibodies to visualize the microtubules and Hoechst to stain the DNA.

Assay [3] relates to histone H3 phosphorylation on Ser 10. Briefly: Western Blot analysis of histone H3 phosphorylation in mitotic cells. The assay is classed as cell-based, human. Particulars: mitotic HeLa cells synchronized with nocodazole, treated 20 h, any of the concentrations tested. The protocol:
For Western Blot analysis of HH3 phosphorylation levels in mitosis HeLa cells were arrested with 2 mM thymidine for 18 h, released into fresh medium for 6 h, and blocked with 2 µM nocodazole for 16 h. DMSO or the different compounds were added 1 h after thymidine release. Mitotic cells were shaken off and lysed in 50 mM Tris pH 6,8- 2% SDS. Samples were sonicated and boiled. 30 µg protein extract (as determined by Bradford assay, Bio-Rad protein assay) was loaded on SDS-PAGE, transferred to a nitrocellulose membrane and blotted with anti-phospho HH3 (Upstate), anti-Aurora A and anti-tubulin antibodies (Sigma, DM1A).

In assay [4] the test system is H2B-GFP/mRFP-αTubulin HeLa cells. Briefly: Time-lapse video microscopy of live cells. It is filed as cell-based, human. Particulars: 2 µM. The protocol:
Upon treatment, living cells were added to a humidified chamber at 37 °C with 5% CO2 attached to a Carl Zeiss microscope (SN:3834000366) equipped with a Hamamatsu EM-CCD digital camera, controlled by AxioVision 4.6 software. Cells were imaged every 3 or 4.5 min (depending on the number of fields filmed) for over 16 h-24 h. Images were taken with the AxioCam MRm 426205 objective and processed using AxioVision software.
The increase in the proportion of cells with more than 2n DNA content could be due to several causes: several cycles of DNA replication or cytokinesis errors as shown for cells treated with other Aurora inhibitors. To determine the primary cause for the phenotype produced by (C) and examine whether (A) may interfere with mitosis, we examined live cells by time-lapse video microscopy. To visualize DNA and microtubules we used a HeLa stable cell line expressing H2B-GFP and mRFP-αTubulin. […] The resulting time-lapse images were used to determine the following parameters: (1) the percentage of cell death among non dividing cells (Figure 4A), (2) the percentage of cells entering mitosis (Figure 4B), (3) the outcome of mitosis: normal division (cell division), return to interphase without chromatin segregation and without dividing (no division), cytokinesis failure (division errors), cell death without resolving mitosis (cell death) (Figure 4C), and (4) the length of time spent in mitosis (TIM), defined as the interval between DNA condensation and anaphase resolution (Figure 4D).

Another assay deals with hTERT-RPE1 cells. Briefly: Cilia disassembly assay. The assay is classed as cell-based. Particulars: pretreatment 1-2 µM, serum stimulation after 48 h starvation. The method, then: Cilia assembly and disassembly assays were performed as described in Pugacheva et al., Cell 2007, 129, 1351-1363. […] For analysis of cilia disassembly, cilia were assembled by 48 h starvation in Opti-MEM, and disassembled by incubation in DMEM-10% serum. Cells were fixed after 2 and 4 h. […] To visualize the centrosomes and the cilia, fixed cells were immunostained with anti-γ-tubulin (Sigma GTU88) and anti-acetylated-tubulin (Sigma), and DNA was stained with Hoechst.

SMILES strings stand for the structures.

Experimental findings from EP2241565A1, “Aurora kinase inhibitors compounds” (Universität Leipzig, priority 2009, dated 2010) are described below.

Turning to `COc1cc2c(Nc3ccc(NC(=O)c4ccccc4)cc3)ncnc2cc1OCCCN1CCOCC1` [ZM1, reference compound], in the assay on HeLa cells [1] (2µM, HeLa cells), the “% of cells 2<n<4” value is given as 2.8%, the “% of cells 2n” value was 1.2%, the “% of cells 4n” value stood at 51.1% and the “% of cells <2n” value was 3.0%. Moreover, the “% of cells >4n” value with HeLa cells [1] (2µM, HeLa cells) was 43.5%. Further, the “effect on DNA content / distribution of cells in the cell cycle stages” value in the assay with HeLa cells [1] (ZM1 2 µM, (A) and (C) increasing concentrations) is “increased the proportion of cells with 4n and 8n DNA content”. Also, in the assay on HeLa cells [2], the “mitotic phenotype of fixed cells” value is given as “strong increase of the number of mitotic cells showing chromosome alignment defects in metaphase”. Also, the HH3-Ser10 phosphorylation result in assay [3] is on record as “strongly reduced”. Further, in assay [4], the “time spent in mitosis (TIM)” value is 306 min. In addition, the “number of cells entering mitosis” value in assay [4] (16 h-24 h) is listed as “decreased by half”. In addition, the “cells that de-condensed their DNA and went back to interphase without chromosome segregation” value in assay [4] (of cells in mitosis) stood at 76%. Further, in the assay on hTERT-RPE1 cells, the cilia disassembly entry is reported as “did not have any effect”.
